These results are taken from US20170307640A1, “METHODS, KITS AND DEVICES FOR DETECTING BII-SPECTRIN, AND BREAKDOWN PRODUCTS THEREOF, AS BIOMARKERS FOR THE DIAGNOSIS OF NEURAL INJURY” (BANYAN BIOMARKERS, INC., priority 2012, published 2017).

In experiment [1] the test system is βII-spectrin. The experiment can be described thus: Effects of calpain and caspase-3 inhibitors on βII-SBDP pattern in challenged cerebrocortical cultures (Western blot). Format: cell-based, rat. As to conditions: for βII-SBDP bands after MTX challenge with inhibitor: 0.5 nM MTX 3 hrs + 20 μM IDN-6556 or 30 μM SNJ-1945; for βII-SBDP bands after NMDA challenge with inhibitor: 300 μM NMDA + 20 μM IDN-6556 or 30 μM SNJ-1945; for βII-SBDP bands after EDTA challenge with inhibitor: EDTA + 20 μM IDN-6556 or 30 μM SNJ-1945, pretreated 1 hr. As for the experimental part:
(§1) All cultures are prepared in quadruplicate. Cerebrocortical cells harvested from 1-day old Sprague-Dawley rat brains are plated on poly-L-lysine coated 6-well culture plates (Erie Scientific, Portsmouth, N.H., USA) according to a previously cited method (Nath et al., 2000) at a density of 4.36×10^5 cells/mL. Cultures are maintained in Dulbecco's modified Eagle's medium (DMEM) with 10% fetal bovine serum in a humidified incubator in an atmosphere of 10% CO2 at 37° C. After 5 days in culture, the media is changed to DMEM with 5% horse serum. Subsequent media changes are performed three times a week. Experiments are performed on days 10 to 11 in vitro when astroglia have formed a confluent monolayer beneath morphologically mature neurons. All animal studies conform to the guidelines outlined in the Guide for the Care and Use of Laboratory Animals from the National Institutes of Health and were approved by the local IACUC.
(§2) Cells are collected and lysed with the same lysis buffer as described above.
(§3) The neuronal lysates are then centrifuged at 15000 g for 5 min at 4° C. to clear and remove insoluble debris, snap-frozen, and stored at −85° C. until use.
(§4) Protein concentrations of culture lysates are determined by bicinchoninic acid microprotein assays (Pierce Inc, Rockford, Ill., USA) with albumin standards. Protein balanced samples are prepared for sodium dodecyl sulfate-polyacrylamide gel electrophoresis (SDS-PAGE) in […] loading buffer containing 0.25 M Tris (pH 6.8), 0.2 M DTT, 8% SDS, 0.02% bromophenol blue, and 20% glycerol in distilled H2O. Twenty micrograms (20 μg) of protein per lane are routinely resolved by SDS-PAGE on 6% Tris/glycine gels (for spectrin protein) and/or 10-20% Tris/glycine gels for 2 hr at 120 V. Following electrophoresis, separated proteins are laterally transferred to polyvinylidene fluoride (PVDF) membranes in a transfer buffer containing 0.50 M glycine, 0.025 M Tris-HC1 (pH 8.3) and 10% methanol at a constant voltage of 20 V for 2 hr at 4° C. in a semi-dry transfer unit (Bio-Rad, Hercules, Calif.).
(§5) Tissue samples (20 μg) are subjected to electrophoresis, equal volumes of samples for SDS/PAGE are prepared in a 2×-fold loading buffer [0.25 M Tris (pH 6.8), 0.2 M DTT, 8% SDS, 0.02% bromophenol blue and 20% glycerol in distilled H2O]. Gels are run at 120 V for 2 hr in a mini-gel unit (Invitrogen Life). Protein bands are transferred to PVDF membrane on a semi-dry Trans-blot unit (Bio-Rad, Hercules, Calif.) at 20 V for 2 hrs. After electrotransfer, blotting membranes are blocked for 1 hr at ambient temperature in 5% non-fat milk in TBST [20 mM Tris/HCl (pH 7.4), 150 mM NaCl and 0.05% (w/v) Tween-20], then incubated with the primary monoclonal antibody in TBST/5% milk. Primary antibodies to be used include mouse anti all-spectrin (Affinity Res. Prod. Nottingham, UK), mouse monoclonal anti βII-spectrin (BD Transduction Laboratories, USA; cat # 612563) and rabbit anti βIII-spectrin (BETHYL Laboratories, Inc. TX, cat # A310-367A). The blots are then washed 3 times for 15 min with TBST and exposed to biotinylated secondary antibodies (Amersham Biosciences, U.K.) followed by a 30 min incubation with streptavidin-conjugated alkaline phosphatase. Colorimetric development is performed with a one-step 5-bromo-4-chloro-3-indolyl phosphate-reagent (Sigma-Aldrich, St. Louis, Mo.). The molecular weights of intact proteins and their potential BDPs are assessed by running along-side rainbow colored molecular weight standards (Amersham Biosciences, U.K.)
(§6) Rat cerebrocortical cell cultures are prepared as described above and treated with calpain inhibitor SNJ-1945 and caspase-3 inhibitor IDN-6556 along with different neurotoxic paradigms (FIG. 3).
A general note: In western blotting, separated proteins are transferred to a membrane and probed.

Experiment [2] has as its system αII-spectrin. The experiment can be described thus: αII-spectrin breakdown pattern in challenged cerebrocortical cultures with or without inhibitors (Western blot). The format is cell-based, rat. The settings on record: for αII-spectrin fragments (SBDP-150/SBDP-145, SBDP-120) after NMDA challenge with respective protease inhibitor: 300 μM NMDA + 30 μM SNJ-1945 or 20 μM IDN-6556; for αII-spectrin breakdown products after neurotoxin challenge alone: EDTA, MTX or NMDA alone. As for the experimental part: as §1, §2, §3, §4, §5, §6

Experiment [3] has as its system βII-spectrin. As to the kind of experiment: βII-spectrin proteolytic fragmentation after brain cortex lysate digestion with calpain-2 and caspase-3. Format: biochemical, rat. As for the experimental part: as §5, with “Colorimetric development is performed with a one-step 5-bromo-4-chloro-3-indolyl phosphate-reagent (Sigma-Aldrich, St. Louis, Mo.).” left out
The subject of experiment [4] is rat cerebrocortical cultures. As to the kind of experiment: Neurotoxin challenges of primary cerebrocortical cultures: morphology and βII-spectrin breakdown by Western blot. The format is cell-based. The settings on record: for degeneration in soma and neurites of neuronal cultures under microscope: MTX at 3 hours, STS, EDTA, NMDA at 24 hours, vs untreated control; for βII-SBDP bands after neurotoxin challenge alone (Western blot): NMDA 300 μM, STS 0.5 μM, EDTA 2 mM, MTX 0.5 nM 3 hrs, no inhibitor. As for the experimental part:
as §1, §2, §3, §4, §5
Alternatively, neuronal cultures are treated with staurosporine (STS) for 24 hours or with NMDA. (FIG. 2)

Entries after “also recorded” stand apart in the source; their conditions may differ.

With `C[C@H](NC(=O)C(=O)Nc1ccccc1C(C)(C)C)C(=O)N[C@@H](CC(=O)O)C(=O)COc1c(F)c(F)cc(F)c1F` [IDN-6556], in experiment [1], the “βII-SBDP bands after MTX challenge with inhibitor” value is “βII-SBDPs of 110 kDa and 85 kDa are observed”; the “βII-SBDP bands after NMDA challenge with inhibitor” value is on record as “much weaker”; the “βII-SBDP bands after EDTA challenge with inhibitor” value is recorded as “no βII-SBDPs”. In addition, the “αII-spectrin fragments (SBDP-150/SBDP-145, SBDP-120) after NMDA challenge with respective protease inhibitor” value in experiment [2] is “strongly inhibited”. For the same molecule, the “αII-spectrin caspase-mediated SBDP-120 after EDTA challenge with inhibitor” value in experiment [2] (EDTA + IDN-6556) is “absence”.

In the case of `C=CC[C@H](C)[C@H](C)C[C@@H](O)[C@H](O)[C@@H]1CC[C@@]2(C)O[C@@]3(C)C[C@@]4(C)O[C@H]5/C=C\C[C@H]6O[C@H]7C[C@H]8O[C@H]9C[C@@]%10(C)O[C@@](C)([C@@H]%11CC[C@H]%12O[C@@]%13(C)C[C@H]%14O[C@@]%15(C)C[C@H]%16O[C@@]%17(C)C[C@@H](O)[C@H]([C@@H]%18O[C@H]%19[C@H](O)[C@@H](O)[C@H](C[C@H](O)C[C@@H](O)[C@@H]%20O[C@H]%21[C@H](O)[C@@H](O)[C@H]([C@@H]%22O[C@@H]%23[C@H](O)[C@H]%24O[C@H]%25C[C@H]%26O[C@@H](C[C@H](O)[C@@H](O)[C@H]%27O[C@H]%28[C@H](O)[C@H]%29O[C@H]%30C[C@H]%31O[C@H]%32[C@@H](O)[C@@H](O)[C@H]([C@H](C)[C@H](O)[C@H](C)CC[C@H](OS(=O)(=O)O)[C@H](O)[C@H](C)C[C@@H](O)C(=C)/C(C)=C/CO)O[C@@H]%32[C@H](O)C[C@]%31(C)O[C@@H]%30C[C@]%29(C)O[C@@H]%28C[C@H]%27O)[C@H](OS(=O)(=O)O)[C@H](O)[C@@H]%26O[C@@H]%25C[C@@H]%24O[C@H]%23[C@H](O)[C@H]%22O)O[C@H]%21C[C@H]%20O)O[C@H]%19C[C@H]%18O)O[C@@H]%17[C@H](O)[C@]%16(C)O[C@@H]%15CC[C@]%14(C)O[C@@H]%13C[C@@H]%12O%11)[C@H](O)C[C@@H]%10O[C@]9(C)CC[C@]8(C)O[C@]7(C)C[C@@H]6O[C@@H]5C[C@@H]4O[C@@H]3C[C@@H]2O1` [MTX, maitotoxin], the “βII-SBDPs generated by EDTA and MTX treatments used as controls for apoptotic and necrotic injury” value in experiment [3] (brain lysates treated with MTX and EDTA, comparators in FIG. 8) is on record as 110/85. For the same molecule, the “αII-spectrin breakdown products after neurotoxin challenge alone” value in experiment [2] is listed as “presence of the prominent calpain-mediated SBDP-145 kDa band”. In experiment [4], the “degeneration in soma and neurites of neuronal cultures under microscope” value (from here on “degeneration in soma and neurites”) is listed as “significant degeneration”; the “βII-SBDP bands after neurotoxin challenge alone (Western blot)” value (from here on “βII-SBDP bands … (Western blot)”) is “strong βII-SBDPs of 110 kDa and 85 kDa bands; also recorded: βII-SBDPs of 110 kDa and 85 kDa are observed”.

Consider `CN[C@H](CC(=O)O)C(=O)O` [NMDA, N-methyl-D-aspartate], for which the “αII-spectrin breakdown products after neurotoxin challenge alone” value in experiment [2] is “prominent calpain-mediated SBDP-150/SBDP-145, with minor bands of caspase-3-mediated SBDP-120”. Moreover, in experiment [4], the “degeneration in soma and neurites” value is recorded as “significant degeneration”; the “βII-SBDP bands … (Western blot)” value was “dominant signal of calpain-mediated βII-spectrin breakdown product (βII-SBDP) of 110 kDa and 85 kDa, with minimal caspase mediated βII-SBDP of 108 kDa and 80 kDa; also recorded: presence of all the βII-SBDPs (110, 108, 85 and 80 kDa)”.

On to `CN[C@@H]1C[C@H]2O[C@@](C)([C@@H]1OC)n1c3ccccc3c3c4c(c5c6ccccc6n2c5c31)C(=O)NC4` [STS, staurosporine], for which, in experiment [4], the “degeneration in soma and neurites” value was “significant degeneration”; the “βII-SBDP bands … (Western blot)” value was “two prominent βII-SBDP bands of 108 kDa and 80 kDa”.

Take `COCCOCCOC(=O)N[C@@H](CC(C)C)C(=O)N[C@@H](Cc1ccccc1)C(=O)C(=O)NC1CC1` [SNJ-1945]: in experiment [1], the “βII-SBDP bands after MTX challenge with inhibitor” value is recorded as “no βII-SBDPs observed”, the “βII-SBDP bands after NMDA challenge with inhibitor” value is listed as “only βII-SBDP-108 kDa band” and the “βII-SBDP bands after EDTA challenge with inhibitor” value is recorded as “strong βII-SBDP 108 kDa/weak 80 kDa bands”. The “αII-spectrin fragments (SBDP-150/SBDP-145, SBDP-120) after NMDA challenge with respective protease inhibitor” value in experiment [2] is “strongly inhibited”. For the same molecule, the “αII-spectrin calpain-mediated SBDP-145 after MTX challenge with inhibitor” value in experiment [2] (MTX + SNJ-1945) was “absence”.

B1: Calpain: purified protease human calpain-2 (BD Bioscience; Catalogue no. 208715) (protein, UniProt P17655 20-700, looked up)
Calpain-2 catalytic subunit: SHDRAIKYLNQDYEALRNECLEAGTLFQDPSFPAIPSALGFKELGPYSSKTRGIEWKRPTEICADPQFIIGGATRTDICQGALGDCWLLAAIASLTLNEEILARVVPLNQSFQENYAGIFHFQFWQYGEWVEVVVDDRLPTKDGELLFVHSAEGSEFWSALLEKAYAKINGCYEALSGGATTEGFEDFTGGIAEWYELKKPPPNLFKIIQKALQKGSLLGCSIDITSAADSEAITFQKLVKGHAYSVTGAEEVESNGSLQKLIRIRNPWGEVEWTGRWNDNCPSWNTIDPEERERLTRRHEDGEFWMSFSDFLRHYSRLEICNLTPDTLTSDTYKKWKLTKMDGNWRRGSTAGGCRNYPNTFWMNPQYLIKLEEEDEDEEDGESGCTFLVGLIQKHRRRQRKMGEDMHTIGFGIYEVPEELSGQTNIHLSKNFFLTNRARERSDTFINLREVLNRFKLPPGEYILVPSTFEPNKDGDFCIRVFSEKKADYQAVDDEIEANLEEFDISEDDIDDGFRRLFAQLAGEDAEISAFELQTILRRVLAKRQDIKSDGFSIETCKIMVDMLDSDGSGKLGLKEFYILWTKIQKYQKIYREIDVDRSGTMNSYEMRKALEEAGFKMPCQLHQVIVARFADDQLIIDFDNFVRCLVRLETLFKIFKQLDPENTGTIELDLISWLCFSVL
Turning to B1, in experiment [3] (intact 260 kDa βII-spectrin, calpain-2 25° C. 30 min, caspase-3 37° C. 4 hrs), the “βII-SBDPs generated by in vitro protease digestion of cortical tissue lysate” value was “prominent 110 and 85 kDa βII-SBDPs in addition to a number of non-specific high molecular bands”.
